In the supplement of paper PMC10307832:

How the values were obtained:
Test in all cases: relative viability (nuclei count vs DMSO), 5 days (fraction); higher = more cells survive
NCI-H1395 = system: NCI-H1395
Procedure, shortened: (§1)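 Lung cancer cell lines were pin-tool dosed in 1536-well plates on the day after seeding, with either a lone drug or a fixed anchor-drug dose plus five library-drug doses (not always all listed) in √10 steps. Nuclei were counted on 4× images after 5 days. Relative viability is the ratio of treated-well to vehicle-well nuclei counts, with each value a median of duplicate plates.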

NCI-H2405 = system: NCI-H2405
Procedure, shortened: as §1

NCI-H661 = system: NCI-H661
Procedure, shortened: as §1

HARA = system: HARA
Procedure, shortened: as §1

NCI-H1355 = system: NCI-H1355
Procedure, shortened: as §1

BEN = system: BEN
Procedure, shortened: as §1

NCI-H1437 = system: NCI-H1437
Procedure, shortened: as §1

HCC-827 = system: HCC-827
Procedure, shortened: as §1

NCI-H1792 = system: NCI-H1792
Procedure, shortened: as §1

NCI-H647 = system: NCI-H647
Procedure, shortened: as §1

NCI-H2087 = system: NCI-H2087
Procedure, shortened: as §1

NCI-H2009 = system: NCI-H2009
Procedure, shortened: as §1

NCI-H1993 = system: NCI-H1993
Procedure, shortened: as §1

NCI-H1734 = system: NCI-H1734
Procedure, shortened: as §1

SK-MES-1 = system: SK-MES-1
Procedure, shortened: as §1

HCC-366 = system: HCC-366
Procedure, shortened: as §1

SK-LU-1 = system: SK-LU-1
Procedure, shortened: as §1

EKVX = system: EKVX
Procedure, shortened: as §1

LOU-NH91 = system: LOU-NH91
Procedure, shortened: as §1

Q: `COc1cc2nccc(Oc3ccc(NC(=O)Nc4cc(C)on4)c(Cl)c3)c2cc1OC` [Tivozanib] + C[C@]1(O)C[C@@H](c2nc(-c3ccc4ccc(-c5ccccc5)nc4c3)c3c(N)nccn32)C1 [Linsitinib] (partner 1 µM) was tested. Which relative viability (NCI-H1395; first compound 0.005 µM) did it give?
A: The relative viability was 0.99.

Q: And the relative viability (NCI-H1395; first compound 0.01581 µM)?
A: The relative viability was 1.1.

Q: And the relative viability (NCI-H1395; first compound 0.05 µM)?
A: Its relative viability is 1.26.

Q: What about the relative viability (NCI-H1395; first compound 0.1581 µM) of the same compound?
A: Its relative viability is 1.09.

Q: What about the relative viability (NCI-H1395; first compound 0.5 µM) of the same compound?
A: The relative viability was 0.827.

Q: What about the relative viability (NCI-H2405; first compound 0.005 µM) of the same compound?
A: Its relative viability is 0.945.

Q: What about the relative viability (NCI-H2405; first compound 0.01581 µM) of the same compound?
A: Its relative viability is 0.996.

Q: And the relative viability (NCI-H2405; first compound 0.05 µM)?
A: The relative viability was 0.943.

Q: What about the relative viability (NCI-H2405; first compound 0.1581 µM) of the same compound?
A: Its relative viability is 0.89.

Q: What about the relative viability (NCI-H2405; first compound 0.5 µM) of the same compound?
A: The relative viability was 0.897.

Q: What about the relative viability (NCI-H661; first compound 0.005 µM) of the same compound?
A: Its relative viability is 0.525.

Q: What about the relative viability (NCI-H661; first compound 0.01581 µM) of the same compound?
A: Its relative viability is 0.564.

Q: What about the relative viability (NCI-H661; first compound 0.05 µM) of the same compound?
A: Its relative viability is 0.498.

Q: What about the relative viability (NCI-H661; first compound 0.1581 µM) of the same compound?
A: Its relative viability is 0.707.

Q: What about the relative viability (NCI-H661; first compound 0.5 µM) of the same compound?
A: The relative viability was 0.652.

Q: And the relative viability (HARA; first compound 0.005 µM)?
A: The relative viability was 0.915.

Q: What about the relative viability (HARA; first compound 0.01581 µM) of the same compound?
A: The relative viability was 0.838.

Q: What about the relative viability (HARA; first compound 0.05 µM) of the same compound?
A: Its relative viability is 1.11.

Q: And the relative viability (HARA; first compound 0.1581 µM)?
A: The relative viability was 1.01.

Q: What about the relative viability (HARA; first compound 0.5 µM) of the same compound?
A: The relative viability was 0.99.

Q: And the relative viability (NCI-H1355; first compound 0.005 µM)?
A: Its relative viability is 0.776.

Q: And the relative viability (NCI-H1355; first compound 0.01581 µM)?
A: Its relative viability is 0.809.

Q: What about the relative viability (NCI-H1355; first compound 0.05 µM) of the same compound?
A: Its relative viability is 0.895.

Q: What about the relative viability (NCI-H1355; first compound 0.5 µM) of the same compound?
A: Its relative viability is 0.844.

Q: What about the relative viability (BEN; first compound 0.005 µM) of the same compound?
A: The relative viability was 0.995.

Q: What about the relative viability (BEN; first compound 0.01581 µM) of the same compound?
A: The relative viability was 0.871.

Q: What about the relative viability (BEN; first compound 0.05 µM) of the same compound?
A: The relative viability was 0.984.

Q: And the relative viability (BEN; first compound 0.5 µM)?
A: The relative viability was 0.912.

Q: And the relative viability (NCI-H1437; first compound 0.005 µM)?
A: The relative viability was 1.02.

Q: And the relative viability (NCI-H1437; first compound 0.01581 µM)?
A: The relative viability was 0.989.

Q: What about the relative viability (NCI-H1437; first compound 0.05 µM) of the same compound?
A: Its relative viability is 0.969.

Q: And the relative viability (NCI-H1437; first compound 0.1581 µM)?
A: Its relative viability is 0.947.

Q: And the relative viability (NCI-H1437; first compound 0.5 µM)?
A: The relative viability was 1.

Q: What about the relative viability (HCC-827; first compound 0.005 µM) of the same compound?
A: Its relative viability is 0.969.

Q: And the relative viability (HCC-827; first compound 0.01581 µM)?
A: The relative viability was 0.942.

Q: What about the relative viability (HCC-827; first compound 0.05 µM) of the same compound?
A: Its relative viability is 0.944.

Q: What about the relative viability (HCC-827; first compound 0.1581 µM) of the same compound?
A: The relative viability was 1.04.

Q: What about the relative viability (HCC-827; first compound 0.5 µM) of the same compound?
A: The relative viability was 0.965.

Q: And the relative viability (NCI-H1792; first compound 0.005 µM)?
A: The relative viability was 0.535.

Q: What about the relative viability (NCI-H1792; first compound 0.01581 µM) of the same compound?
A: The relative viability was 0.581.

Q: What about the relative viability (NCI-H1792; first compound 0.05 µM) of the same compound?
A: The relative viability was 0.534.

Q: And the relative viability (NCI-H1792; first compound 0.1581 µM)?
A: The relative viability was 0.698.

Q: What about the relative viability (NCI-H1792; first compound 0.5 µM) of the same compound?
A: The relative viability was 0.592.

Q: What about the relative viability (NCI-H647; first compound 0.005 µM) of the same compound?
A: Its relative viability is 1.08.

Q: What about the relative viability (NCI-H647; first compound 0.01581 µM) of the same compound?
A: Its relative viability is 1.09.

Q: What about the relative viability (NCI-H647; first compound 0.05 µM) of the same compound?
A: The relative viability was 1.26.

Q: What about the relative viability (NCI-H647; first compound 0.1581 µM) of the same compound?
A: Its relative viability is 1.21.

Q: What about the relative viability (NCI-H647; first compound 0.5 µM) of the same compound?
A: Its relative viability is 1.18.

Q: What about the relative viability (NCI-H2087; first compound 0.005 µM) of the same compound?
A: The relative viability was 0.928.

Q: What about the relative viability (NCI-H2087; first compound 0.01581 µM) of the same compound?
A: Its relative viability is 0.922.

Q: And the relative viability (NCI-H2087; first compound 0.05 µM)?
A: Its relative viability is 0.926.

Q: And the relative viability (NCI-H2087; first compound 0.1581 µM)?
A: The relative viability was 1.04.

Q: And the relative viability (NCI-H2087; first compound 0.5 µM)?
A: Its relative viability is 0.81.

Q: What about the relative viability (NCI-H2009; first compound 0.005 µM) of the same compound?
A: The relative viability was 1.15.

Q: And the relative viability (NCI-H2009; first compound 0.01581 µM)?
A: The relative viability was 1.19.

Q: What about the relative viability (NCI-H2009; first compound 0.05 µM) of the same compound?
A: The relative viability was 1.23.

Q: And the relative viability (NCI-H2009; first compound 0.1581 µM)?
A: Its relative viability is 1.25.

Q: What about the relative viability (NCI-H2009; first compound 0.5 µM) of the same compound?
A: Its relative viability is 1.23.

Q: What about the relative viability (NCI-H1993; first compound 0.005 µM) of the same compound?
A: Its relative viability is 0.698.

Q: And the relative viability (NCI-H1993; first compound 0.01581 µM)?
A: Its relative viability is 0.777.

Q: And the relative viability (NCI-H1993; first compound 0.05 µM)?
A: The relative viability was 0.79.

Q: And the relative viability (NCI-H1993; first compound 0.1581 µM)?
A: Its relative viability is 0.638.

Q: And the relative viability (NCI-H1993; first compound 0.5 µM)?
A: Its relative viability is 0.758.

Q: What about the relative viability (NCI-H1734; first compound 0.005 µM) of the same compound?
A: The relative viability was 0.847.

Q: What about the relative viability (NCI-H1734; first compound 0.01581 µM) of the same compound?
A: The relative viability was 0.795.

Q: And the relative viability (NCI-H1734; first compound 0.05 µM)?
A: Its relative viability is 1.03.

Q: What about the relative viability (NCI-H1734; first compound 0.1581 µM) of the same compound?
A: The relative viability was 0.674.

Q: And the relative viability (NCI-H1734; first compound 0.5 µM)?
A: Its relative viability is 0.858.

Q: What about the relative viability (SK-MES-1; first compound 0.005 µM) of the same compound?
A: Its relative viability is 1.08.

Q: What about the relative viability (SK-MES-1; first compound 0.01581 µM) of the same compound?
A: Its relative viability is 1.07.

Q: And the relative viability (SK-MES-1; first compound 0.05 µM)?
A: Its relative viability is 1.05.

Q: What about the relative viability (SK-MES-1; first compound 0.1581 µM) of the same compound?
A: The relative viability was 1.14.

Q: And the relative viability (SK-MES-1; first compound 0.5 µM)?
A: Its relative viability is 1.07.

Q: What about the relative viability (HCC-366; first compound 0.005 µM) of the same compound?
A: Its relative viability is 0.475.

Q: And the relative viability (HCC-366; first compound 0.01581 µM)?
A: Its relative viability is 0.57.

Q: And the relative viability (HCC-366; first compound 0.05 µM)?
A: The relative viability was 0.712.

Q: And the relative viability (HCC-366; first compound 0.1581 µM)?
A: Its relative viability is 0.516.

Q: And the relative viability (HCC-366; first compound 0.5 µM)?
A: Its relative viability is 0.606.

Q: And the relative viability (SK-LU-1; first compound 0.005 µM)?
A: The relative viability was 0.979.

Q: And the relative viability (SK-LU-1; first compound 0.01581 µM)?
A: The relative viability was 1.08.

Q: And the relative viability (SK-LU-1; first compound 0.05 µM)?
A: The relative viability was 1.34.

Q: And the relative viability (SK-LU-1; first compound 0.1581 µM)?
A: The relative viability was 0.813.

Q: What about the relative viability (SK-LU-1; first compound 0.5 µM) of the same compound?
A: Its relative viability is 0.938.

Q: And the relative viability (EKVX; first compound 0.005 µM)?
A: The relative viability was 0.95.

Q: And the relative viability (EKVX; first compound 0.01581 µM)?
A: The relative viability was 0.931.

Q: What about the relative viability (EKVX; first compound 0.05 µM) of the same compound?
A: The relative viability was 1.07.

Q: What about the relative viability (EKVX; first compound 0.1581 µM) of the same compound?
A: The relative viability was 1.07.

Q: What about the relative viability (EKVX; first compound 0.5 µM) of the same compound?
A: The relative viability was 1.09.

Q: And the relative viability (LOU-NH91; first compound 0.005 µM)?
A: Its relative viability is 0.934.

Q: And the relative viability (LOU-NH91; first compound 0.01581 µM)?
A: Its relative viability is 0.941.

Q: What about the relative viability (LOU-NH91; first compound 0.05 µM) of the same compound?
A: Its relative viability is 0.981.

Q: And the relative viability (LOU-NH91; first compound 0.1581 µM)?
A: Its relative viability is 0.933.

Q: What about the relative viability (LOU-NH91; first compound 0.5 µM) of the same compound?
A: The relative viability was 1.
